Results taken from patent US9682078B2, “Compositions and methods for tissue engineering and cell based therapies” (University of Virginia Patent Foundation, priority 2011, dated 2017).

Columns and labels:
smooth muscle = details: daily injections; cited from earlier work
[1] = test system: CD45+/CD11b+/Ly6Chigh/CX3CR1low inflammatory monocytes (IM); experiment: Transwell migration of sorted inflammatory monocytes after FTY720 pre-treatment; assay type: cell-based, mouse; details: FIG. 6B
Text: (§1) CD45^+/CD11b^+/Ly6C^low/CX3CR1^high anti-inflammatory monocytes (AM) and CD45^+/CD11b^+/Ly6C^high/CX3CR1^low inflammatory monocytes (IM) (FIG. 6C) were sorted from mouse marrow. […] In vivo, in tissue from the murine dorsal skinfold window chamber, the recruitment of IMs to dorsal tissue was attenuated with local FTY720 application from PLAGA films (FIG. 6D). Cells that are CD45^+/CD11b^+/Ly6C^high/CX3CR1^low/CD105^+ and have a decreasing expression of Sca1 (a progenitor cell marker) are consistent with endothelial progenitor derived endothelial cells (EPC-ECs). […] Local FTY720 stimulation attenuates the infiltration of inflammatory cells and recruits regenerative stem cells. (See FIGS. 3-6).

[2] = test system: ischemic spinotrapezius muscle; experiment: Arterial ligation of spinotrapezius muscle with PLAGA film implantation, confocal microscopy; assay type: in vivo, mouse; details: FIG. 7
Text: (§2) Backpacks were implanted with PLAGA films and collagenase was used to digest dorsal tissue directly around the implants after 3 days to create single cell suspensions. Flow cytometry was used to assess cellular content. A feeder artery to the spinotrapezius muscle was ligated, creating an ischemic environment, and confocal microscopy on whole-mounted tissue was used to assess CX3CR1 expression in the muscle (FIG. 5).

[3] = in vivo; cited from earlier work
dorsal microvasculature [4] = experiment: Murine dorsal skinfold window chamber, intravital microscopy of microvascular remodeling; assay type: in vivo, mouse; details: S1P3 selectively antagonized on marrow-derived cells (BM S1P3−/−); 3 days post-implantation; FIG. 8
Method: (§3) 1 mm poly(lactic-co-glycolic acid) PLAGA films loaded with S1P receptor compounds are placed within the window chamber as shown. Repeated measurements of the same vessel networks are recorded and quantified over a 7-day time course using intravital microscopy. (FIG. 3).

dorsal tissue = experiment: Murine dorsal skinfold window chamber with PLAGA films, flow cytometry of dorsal tissue; assay type: in vivo, mouse; details: local application from PLAGA films
Method: as §3, §2

[5] = test system: Lineage1−/Sca1+/c-kit+ (LSK) hematopoietic stem cells; experiment: Transwell migration of sorted LSK hematopoietic stem cells toward SDF-1 and S1P; assay type: cell-based, mouse; details: cells pre-treated with compound (15 nM for VPC01091, VPC01211)
Method: Whole bone marrow cells were harvested from C57Bl/6 mice tibiae. They were pre-labeled with antibodies against Lineage 1, Sca1, and c-kit and the LSK subset were sorted, serum starved, and plated at equal concentration after pre-treatment with FTY720. Migration toward media, SDF1, and S1P was calculated.
Hematopoietic stem cell migration was also studied (FIG. 17). Lineage1−/Sca1+/c-kit+ (LSK) hematopoietic stem cells were sorted and serum starved for two hours. Cells were pre-treated with 15 nM VPC01211 or not and plated for transwell migration assays toward plain media, SDF-1 or S1P.

[6] = test system: CD45+/CD11b+/Ly6Clow/CX3CR1high anti-inflammatory monocytes (AM); experiment: Transwell migration of sorted anti-inflammatory monocytes after FTY720 pre-treatment; assay type: cell-based, mouse; details: FIG. 6A
Text: as §1

[7] = test system: critical size calvarial bone defects; details: 3D PLAGA scaffolds delivering FTY720; cited from earlier work
dorsal microvasculature [8] = details: sustained release from 50:50 PLAGA films (1:200 wt/wt); cited from earlier work
S1P3 receptor = S1P3 receptor (Homo sapiens, UniProt Q99500); details: cited from earlier work
5 mm cranial defects = experiment: Rat cranial critical size bone defect, microCT and flow cytometry; assay type: in vivo
Method: 5 mm cranial defects were made in 36 nine weeks old Sprague Daley rats, which were divided into 4 groups (n=9). The rats were treated with a systemic dose of 1 mpk VPC01091, FTY720 coated semi-circular allograft, FTY720 coated semi-circular allograft+a systemic dose of 1 mpk VPC01091 or left untreated. VPC01091 was given the day after surgery and 3 weeks post-surgery. Hemavet (Drew Scientifics) was used to measure the concentrations of blood cells at days 0, week 1 and week 2 (n=6) (data not shown). The amount of bone regeneration was measured bi-weekly with microCT imaging (n=3-9). Flow cytometry was performed according to standard procedures on the tissue harvested from the defect sites at week 3 (n=3), and from peripheral blood at week 6 (n=3). Monoclonal antibodies (Invitrogen, Abeam) for rat CD45, CD11b, CD54, CD90 were used in both cases. Mason's Trichrome and H&E staining were done for done for all groups (n=3).

donor (GFP+) cells = experiment: Bone marrow transplant after lethal irradiation with equal number of mobilized cells; details: two-week chimerism after competitive BMT with equal numbers of mobilized cells; FIG. 10D
Method: WT mice were irradiated & reconstituted with mobilized peripheral blood cells from GFP+ mice. After varying amounts of time, blood was collected via the retro-orbital sinus and bone marrow was harvested to assess chimerism over time.
100 μL blood was plated on methocult stem cell differentiation medium and after 6 days colony forming units were quantified. […] Cells tested included—Host cells, PB donor cells and BM donor cells were tested. Treatments included—AMD cells, A+V cells, AMD Sca1+, A+V Sca1+, AMD CD45+, A+V CD45+, AMD CD11b+, and A+V CD11b+.

S1P1 receptor = S1P1 receptor (Homo sapiens, UniProt P21453); details: cited from earlier work
bone marrow cells = experiment: Transwell migration of bone marrow cells toward SDF-1; assay type: cell-based, rat; details: pre-treated 10 ng/ml 30 minutes
Method: Bone marrow cells were collected from the tibia of Sprague Daley rats (Charles River), scrum starved for 2 hours, and the cell suspension at 2×10^6 cells/ml was pre-treated with serum-free medium, or 10 ng/ml FTY720-P (Cayman) for 30 minutes and then were re-suspended in serum-free DMEM (Invitrogen). 100 μl of the pre-treated cell suspension was added to the top of 5 μm transwell inserts (Costar) in a 24-well plate. The bottom of the wells contained 600 μl of serum-free DMEM or 12.5 nM SDF-1 (ProspecBio). The cells were incubated at 37° C. for 4 hours, and then the number of cells at the top and the bottom of the transwells were counted using an automatic cell counter. The cells that migrated toward SDF-1 after pre-treatment with FTY720-P were collected from the bottom of the transwells and treated with monoclonal antibodies to CD45, CD11b and CD90 prior to flow analysis. Flow cytometry was performed according to standard procedures and was analyzed on a 9 color CyAn flow cytometer.

[9] = test system: whole BMCs on FBMD-1 stromal cells; experiment: Cobblestone area-forming cell assay; assay type: cell-based, mouse; details: BMCs pre-treated 30 minutes; FIG. 19
Text: Ordinate—% Positive Wells.

[10] = in the absence of a carrier protein; cited from earlier work
[11] = PLAGA film, ligated feeder artery

S1P3 receptor, sequence (Q99500 whole entry): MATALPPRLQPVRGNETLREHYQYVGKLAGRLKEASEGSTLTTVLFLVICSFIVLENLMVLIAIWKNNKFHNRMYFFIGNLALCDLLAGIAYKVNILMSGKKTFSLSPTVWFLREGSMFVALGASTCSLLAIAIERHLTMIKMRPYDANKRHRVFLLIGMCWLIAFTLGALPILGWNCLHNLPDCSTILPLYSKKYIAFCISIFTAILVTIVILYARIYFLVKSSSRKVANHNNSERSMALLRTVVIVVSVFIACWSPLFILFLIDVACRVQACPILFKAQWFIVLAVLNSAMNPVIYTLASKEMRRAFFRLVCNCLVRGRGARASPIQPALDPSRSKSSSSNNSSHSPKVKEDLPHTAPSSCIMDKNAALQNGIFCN
S1P1 receptor, sequence (P21453 whole entry): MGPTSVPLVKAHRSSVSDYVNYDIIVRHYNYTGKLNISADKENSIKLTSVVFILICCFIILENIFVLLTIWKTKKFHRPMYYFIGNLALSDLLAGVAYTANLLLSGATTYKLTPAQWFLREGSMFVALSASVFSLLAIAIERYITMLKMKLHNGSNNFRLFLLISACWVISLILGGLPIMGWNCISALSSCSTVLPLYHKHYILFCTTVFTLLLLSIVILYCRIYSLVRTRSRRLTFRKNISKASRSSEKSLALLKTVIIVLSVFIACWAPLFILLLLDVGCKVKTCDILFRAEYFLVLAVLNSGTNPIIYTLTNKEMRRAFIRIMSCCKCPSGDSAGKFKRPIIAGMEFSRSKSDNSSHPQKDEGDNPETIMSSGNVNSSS

Question: Which “smooth muscle proliferation and migration” value (smooth muscle) does the source give for `CCCCCCCCc1cccc(NC(=O)[C@H](N)CCP(=O)(O)O)c1` [VPC44116] here?
Answer: significantly decreased

Question: Which “migration of IMs towards S1P” value [1] does the source give for `CCCCCCCCc1ccc(CCC(N)(CO)CO)cc1` [FTY720, 2-amino-2-[2-(4-octylphenyl)ethyl]propane 1,3-diol] here?
Answer: decreased

Question: What about the “migration of IMs towards SDF-1” value [1] of the same molecule?
Answer: decreased

Question: And the “recruitment of vessel-associated CX3CR1+ cells” value ([2]; CX3CR1-eGFP mice)?
Answer: recruitment of vessel-associated CX3CR1+ cells

Question: What about the “remodeling in ischemic muscle” value [2, 11] of the same molecule?
Answer: induces remodeling in ischemic muscle

Question: What about the tortuosity of vessels [2, 11] of the same molecule?
Answer: promotes tortuosity of vessels

Question: And the half-life [3]?
Answer: approximately 7 days

Question: And the FTY720-induced microvascular remodeling (dorsal microvasculature [4])?
Answer: impaired

Question: What about the “EPC-ECs in dorsal tissue” value (dorsal tissue) of the same molecule?
Answer: increased

Question: What about the “recruitment of IMs to dorsal tissue” value (dorsal tissue; FIG. 6D) of the same molecule?
Answer: attenuated

Question: What about the “HSC migration / homing toward S1P” value [5] of the same molecule?
Answer: abolishes

Question: And the “HSC migration / homing toward SDF-1” value [5]?
Answer: improves

Question: And the “migration of AMs towards SDF-1” value [6]?
Answer: increased

Question: And the osseous tissue ingrowth [7]?
Answer: significantly increases

Question: And the “proportion of mature smooth muscle cell-invested microvessels within the bony defect” value [7]?
Answer: significantly increases

Question: What about the “arteriole formation and enlargement” value (dorsal microvasculature [8]) of the same molecule?
Answer: promotes formation of new arterioles and structural enlargement of existing arterioles

Question: Which results are given for `CCCCCCCCc1ccc(C2CCC(N)(CO)C2)cc1` (stereo not shown) [VPC01091]?
Answer: activity at S1P3 receptor (S1P3 receptor): antagonist; bone regeneration compared to the empty defect controls (5 mm cranial defects; systemic 1 mpk, day after surgery and 3 weeks post-surgery, microCT, FIG. 11): substantial bi-weekly increase; percentage of CD54 and CD90 positive cells in the defect region (5 mm cranial defects; week 3, FIG. 12a): increase; percentage of CD54 and CD90 positive cells in the blood (5 mm cranial defects; week 6, FIG. 12b): increase; engraftment and repopulation efficiency in vivo (donor (GFP+) cells): does not impair; HSC migration / homing toward S1P [5]: sensitized; HSC migration / homing toward SDF-1 [5]: desensitized; activity at S1P1 receptor (S1P1 receptor): agonist

Question: For `CCCCCCCCc1ccc(CC[C@](N)(CO)COP(=O)(O)O)cc1` [FTY720-P], which “total number of cells migrating toward SDF-1” value (bone marrow cells; 12.5 nM SDF-1, 4 hours, FIG. 11E) is on record?
Answer: significantly increased

Question: What about the “percentage of CD90+; CD45−/CD11b− cells migrating toward SDF-1” value (bone marrow cells; FIG. 11F) of the same molecule?
Answer: higher percentage

Question: With `CCCCCCCCc1ccc(C2CCC(N)(COP(=O)(O)O)C2)cc1` (stereo not shown) [VPC01211] as the molecule, how does the “adhesion / engraftment on bone marrow stromal cell layer” value [9] read?
Answer: less engraftment than AMD3100

Question: And the “HSC migration / homing toward S1P” value [5]?
Answer: did not affect

Question: And the “HSC migration / homing toward SDF-1” value [5]?
Answer: abrogated

Question: Which half-life in blood [3] does the source give for `CCCCCCCCCCCCC/C=C/[C@@H](O)[C@@H](N)COP(=O)(O)O` [S1P, Sphingosine 1-phosphate] here?
Answer: less than 1 hour

Question: And the “solubility in aqueous solutions” value [10]?
Answer: insoluble
